Test results published in ChEMBL document CHEMBL3233010, “Design, synthesis and biological evaluation of novel 6-alkenylamides substituted of 4-anilinothieno[2,3-d]pyrimidines as irreversible epidermal growth factor receptor inhibitors” (Bioorg Med Chem, 2014).
pIC50: −log10 of the molar value. Activity calls are given as the source filed them. No cut-off for these calls is given here.

Key:
A-431 = experiment: Antiproliferative activity against human A431 cells assessed as growth inhibition after 72 hrs by SRB assay; format: functional, cell-based; details: A-431, 72 h
[1] = target: T1, Epidermal growth factor receptor (Homo sapiens, UniProt P00533); experiment: Inhibition of wild type EGFR domain (unknown origin) expressed in baculovirus expression system using Poly(Glu:Tyr)4:1 substrate after 60 mins by ELISA
[2] = target: Epidermal growth factor receptor (Homo sapiens, UniProt P00533, L858R/T790M); experiment: Inhibition of EGFR T790M/L858R double mutant (unknown origin) expressed in baculovirus expression system using Poly(Glu:Tyr)4:1 substrate after 60 mins by ELISA
NCI-H1975 = experiment: Antiproliferative activity against gefitinib-resistant human NCI-H1975 cells assessed as growth inhibition after 72 hrs by SRB assay; format: functional, cell-based; details: NCI-H1975, 72 h
[3] = target: T1, Epidermal growth factor receptor; experiment: Inhibition of EGFR in human A431 cells assessed as inhibition of EGF-induced ERK1/2 phosphorylation at 0.1 to 1 umol/L pretreated for 2 hrs followed by EGF challenge by Western blotting analysis; format: cell-based; details: A-431
[4] = system: Epidermal growth factor receptor (Homo sapiens), P00533 [L858R,T790M]; experiment: Inhibition of EGFR T790M/L858R double mutant in human NCI-H1975 cells assessed as inhibition of EGF-induced ERK1/2 phosphorylation pretreated for 2 hrs followed by EGF challenge by Western blotting analysis; format: cell-based
[5] = target: T1, Epidermal growth factor receptor; experiment: Inhibition of EGF-induced EGFR autophosphorylation in human A431 cells pretreated for 2 hrs followed by EGF challenge by Western blotting analysis; format: cell-based; details: A-431
[6] = target: T1, Epidermal growth factor receptor; experiment: Inhibition of EGF-induced EGFR autophosphorylation in human A431 cells at 0.1 umol/L pretreated for 2 hrs followed by EGF challenge by Western blotting analysis; format: cell-based; details: A-431
[7] = system: Epidermal growth factor receptor (Homo sapiens), P00533 [L858R,T790M]; experiment: Inhibition of EGFR T790M/L858R double mutant in human NCI-H1975 cells assessed as inhibition of EGF-induced AKT phosphorylation pretreated for 2 hrs followed by EGF challenge by Western blotting analysis; format: cell-based
[8] = target: T1, Epidermal growth factor receptor; experiment: Inhibition of EGFR in human A431 cells assessed as inhibition of EGF-induced AKT phosphorylation at 0.1 to 1 umol/L pretreated for 2 hrs followed by EGF challenge by Western blotting analysis; format: cell-based; details: A-431
[9] = system: Epidermal growth factor receptor (Homo sapiens), P00533 [L858R,T790M]; experiment: Inhibition of EGF-induced EGFR T790M/L858R double mutant phosphorylation in human NCI-H1975 cells pretreated for 2 hrs followed by EGF challenge by Western blotting analysis; format: cell-based

Sequence of Epidermal growth factor receptor (Homo sapiens), P00533 [L858R,T790M] (P00533 whole entry T790M/L858R, looked up): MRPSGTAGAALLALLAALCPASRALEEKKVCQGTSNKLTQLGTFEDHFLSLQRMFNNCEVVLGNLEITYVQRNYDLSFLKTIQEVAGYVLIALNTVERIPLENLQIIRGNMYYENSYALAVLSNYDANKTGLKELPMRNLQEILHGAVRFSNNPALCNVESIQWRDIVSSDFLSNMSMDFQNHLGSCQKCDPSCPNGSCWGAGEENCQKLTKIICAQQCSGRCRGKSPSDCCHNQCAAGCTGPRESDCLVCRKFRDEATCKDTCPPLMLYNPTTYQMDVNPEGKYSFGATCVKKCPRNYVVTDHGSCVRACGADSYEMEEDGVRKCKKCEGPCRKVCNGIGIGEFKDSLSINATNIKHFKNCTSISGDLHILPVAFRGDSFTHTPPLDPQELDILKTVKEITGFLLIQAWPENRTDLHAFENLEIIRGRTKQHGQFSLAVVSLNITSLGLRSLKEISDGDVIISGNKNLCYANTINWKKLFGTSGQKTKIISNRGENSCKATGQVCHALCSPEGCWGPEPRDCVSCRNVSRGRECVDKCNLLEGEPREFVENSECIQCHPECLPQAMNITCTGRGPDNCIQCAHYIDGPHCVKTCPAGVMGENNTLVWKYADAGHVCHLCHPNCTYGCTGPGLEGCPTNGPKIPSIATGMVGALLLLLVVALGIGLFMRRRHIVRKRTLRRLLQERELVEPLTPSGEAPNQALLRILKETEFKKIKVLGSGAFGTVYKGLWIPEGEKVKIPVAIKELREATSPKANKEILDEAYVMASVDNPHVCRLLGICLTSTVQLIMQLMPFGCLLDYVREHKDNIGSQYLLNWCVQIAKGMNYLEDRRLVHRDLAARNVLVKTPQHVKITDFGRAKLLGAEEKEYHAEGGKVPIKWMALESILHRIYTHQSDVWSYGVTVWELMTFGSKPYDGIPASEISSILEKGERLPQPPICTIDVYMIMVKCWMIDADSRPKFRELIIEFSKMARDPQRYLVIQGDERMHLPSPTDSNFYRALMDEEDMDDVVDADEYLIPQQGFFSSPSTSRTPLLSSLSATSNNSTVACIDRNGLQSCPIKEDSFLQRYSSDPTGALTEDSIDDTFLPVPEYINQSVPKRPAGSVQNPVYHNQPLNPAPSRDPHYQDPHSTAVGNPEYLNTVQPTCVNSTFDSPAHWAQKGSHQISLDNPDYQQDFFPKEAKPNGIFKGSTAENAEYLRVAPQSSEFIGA
Sequence of Epidermal growth factor receptor (Homo sapiens, UniProt P00533, L858R/T790M) (P00533 25-1210 T790M/L858R limits assumed): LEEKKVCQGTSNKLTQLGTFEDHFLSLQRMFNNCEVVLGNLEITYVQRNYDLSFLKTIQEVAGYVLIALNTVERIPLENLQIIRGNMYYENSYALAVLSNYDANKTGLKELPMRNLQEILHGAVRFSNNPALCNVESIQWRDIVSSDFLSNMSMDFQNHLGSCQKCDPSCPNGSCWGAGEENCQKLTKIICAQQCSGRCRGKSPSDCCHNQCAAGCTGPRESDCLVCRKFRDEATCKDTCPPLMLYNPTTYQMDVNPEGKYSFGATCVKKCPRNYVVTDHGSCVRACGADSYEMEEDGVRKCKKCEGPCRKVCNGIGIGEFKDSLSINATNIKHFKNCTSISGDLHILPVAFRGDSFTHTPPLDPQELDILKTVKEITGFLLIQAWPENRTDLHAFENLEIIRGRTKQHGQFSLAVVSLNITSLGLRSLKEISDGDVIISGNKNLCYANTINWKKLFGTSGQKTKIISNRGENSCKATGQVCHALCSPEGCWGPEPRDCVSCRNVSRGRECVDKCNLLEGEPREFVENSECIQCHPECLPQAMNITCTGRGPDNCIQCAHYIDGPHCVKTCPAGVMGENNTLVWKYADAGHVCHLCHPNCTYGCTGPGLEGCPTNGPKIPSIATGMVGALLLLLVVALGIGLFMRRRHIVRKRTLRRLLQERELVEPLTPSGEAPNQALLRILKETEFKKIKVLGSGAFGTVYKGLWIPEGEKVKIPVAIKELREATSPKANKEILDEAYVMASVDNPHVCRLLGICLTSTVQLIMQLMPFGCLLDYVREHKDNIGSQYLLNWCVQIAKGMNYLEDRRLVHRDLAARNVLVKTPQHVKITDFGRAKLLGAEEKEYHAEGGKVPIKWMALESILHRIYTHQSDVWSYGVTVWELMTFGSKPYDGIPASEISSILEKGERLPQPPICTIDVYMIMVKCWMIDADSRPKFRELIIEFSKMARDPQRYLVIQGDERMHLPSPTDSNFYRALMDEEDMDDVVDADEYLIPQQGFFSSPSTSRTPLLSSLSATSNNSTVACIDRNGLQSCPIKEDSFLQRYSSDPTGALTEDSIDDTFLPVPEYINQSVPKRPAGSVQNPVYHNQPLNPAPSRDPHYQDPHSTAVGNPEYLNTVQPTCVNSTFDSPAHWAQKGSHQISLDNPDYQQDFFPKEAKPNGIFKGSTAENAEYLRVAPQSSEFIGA
T1 sequence (P00533 whole entry, the tested form may be a part): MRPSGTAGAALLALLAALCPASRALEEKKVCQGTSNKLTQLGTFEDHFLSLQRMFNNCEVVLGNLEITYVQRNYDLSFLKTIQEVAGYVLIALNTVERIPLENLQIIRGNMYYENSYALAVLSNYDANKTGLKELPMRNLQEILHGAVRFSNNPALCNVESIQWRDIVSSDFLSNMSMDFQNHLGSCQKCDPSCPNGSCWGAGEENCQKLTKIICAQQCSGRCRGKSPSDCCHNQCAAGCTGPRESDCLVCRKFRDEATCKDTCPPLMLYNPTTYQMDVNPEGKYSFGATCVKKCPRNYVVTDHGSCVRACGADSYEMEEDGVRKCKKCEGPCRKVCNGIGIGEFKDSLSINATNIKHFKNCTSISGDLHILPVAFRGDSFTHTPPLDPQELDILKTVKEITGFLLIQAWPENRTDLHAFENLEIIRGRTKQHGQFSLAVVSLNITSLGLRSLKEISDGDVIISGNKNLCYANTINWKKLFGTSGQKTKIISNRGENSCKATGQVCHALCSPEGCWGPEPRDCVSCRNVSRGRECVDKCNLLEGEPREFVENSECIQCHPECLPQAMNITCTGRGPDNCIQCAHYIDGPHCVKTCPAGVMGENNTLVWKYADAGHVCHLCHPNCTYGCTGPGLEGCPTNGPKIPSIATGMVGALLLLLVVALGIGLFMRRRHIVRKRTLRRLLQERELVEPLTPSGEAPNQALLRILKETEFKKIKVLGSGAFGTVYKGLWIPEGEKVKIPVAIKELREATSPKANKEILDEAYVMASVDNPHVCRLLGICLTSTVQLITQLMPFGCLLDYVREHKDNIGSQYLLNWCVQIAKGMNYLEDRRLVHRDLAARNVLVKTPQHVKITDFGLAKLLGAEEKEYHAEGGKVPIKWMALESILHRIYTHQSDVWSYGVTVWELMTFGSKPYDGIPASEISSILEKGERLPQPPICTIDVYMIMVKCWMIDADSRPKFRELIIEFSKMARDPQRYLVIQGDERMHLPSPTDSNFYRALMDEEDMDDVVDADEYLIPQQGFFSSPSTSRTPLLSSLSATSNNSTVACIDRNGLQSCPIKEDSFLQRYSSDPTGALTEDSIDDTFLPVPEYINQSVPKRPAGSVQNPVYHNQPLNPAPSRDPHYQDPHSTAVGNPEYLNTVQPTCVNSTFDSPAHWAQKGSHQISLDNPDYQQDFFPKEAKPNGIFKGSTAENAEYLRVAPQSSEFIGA

Row | SMILES | pIC50 (A-431) | pIC50 [1] | pIC50 [2] | pIC50 (NCI-H1975) | inhibition [3] | inhibition [4] | inhibition [5] | inhibition [6] | inhibition [7] | inhibition [8] | inhibition [9]
1 | CN(C)CCCN(C)C/C=C/C(=O)Nc1cc2c(Nc3ccc(F)c(Cl)c3)ncnc2s1 | 5.47 | 7.03 | 5.98 | < 4.00 |  |  |  |  |  |  | 
2 | CN(C)CCCC(=O)Nc1cc2c(Nc3ccc(F)c(Cl)c3)ncnc2s1 | 5.46 | 6.10 | 5.74 | 4.53 |  |  |  |  |  |  | 
3 | C/C=C(\C)C(=O)Nc1cc2c(Nc3ccc(F)c(Cl)c3)ncnc2s1 | 4.62 | 5.19 | < 5.00 | < 4.00 |  |  |  |  |  |  | 
4 | CCN1CCN(C/C=C/C(=O)Nc2cc3c(Nc4ccc(F)c(Cl)c4)ncnc3s2)CC1 | 5.36 | 7.46 | 8.40 | 4.69 |  |  |  |  |  |  | 
5 | O=C(CCl)Nc1cc2c(Nc3ccc(F)c(Cl)c3)ncnc2s1 | 5.45 | 7.40 | 6.15 | 5.52 |  |  |  |  |  |  | 
6 | CN1CCN(CC(=O)Nc2cc3c(Nc4ccc(F)c(Cl)c4)ncnc3s2)CC1 | 5.77 | 5.47 | < 5.00 | 4.67 |  |  |  |  |  |  | 
7 | O=C(CN1CCN(CCO)CC1)Nc1cc2c(Nc3ccc(F)c(Cl)c3)ncnc2s1 | 4.99 | 6.11 | < 5.00 | < 4.00 |  |  |  |  |  |  | 
8 | O=C(/C=C/CNCC1COC1)Nc1cc2c(Nc3ccc(F)c(Cl)c3)ncnc2s1 | 5.41 | 8.00 | 7.66 | 4.21 |  |  |  |  |  |  | 
9 | O=C(/C=C/CN1CC2(CCOCC2)C1)Nc1cc2c(Nc3ccc(F)c(Cl)c3)ncnc2s1 | 4.87 | 5.67 | 5.65 | 4.41 |  |  |  |  |  |  | 
10 | O=C(/C=C/CN1CCS(=O)(=O)CC1)Nc1cc2c(Nc3ccc(F)c(Cl)c3)ncnc2s1 | 5.06 | 7.54 | 8.15 | 4.12 |  |  |  |  |  |  | 
11 | CN(C)CCCN(C)CC(=O)Nc1cc2c(Nc3ccc(F)c(Cl)c3)ncnc2s1 | 5.62 | 5.28 | 5.77 | 4.72 |  |  |  |  |  |  | 
12 | CC(C)N1CCN(C/C=C/C(=O)Nc2cc3c(Nc4ccc(F)c(Cl)c4)ncnc3s2)CC1 | 5.32 | 7.47 | 8.70 | 4.68 |  |  |  |  |  |  | 
13 | CCCCC(=O)Nc1cc2c(Nc3ccc(F)c(Cl)c3)ncnc2s1 | 4.85 | < 5.00 | < 5.00 | < 4.00 |  |  |  |  |  |  | 
14 | O=C(/C=C/CN1CCC(F)(F)CC1)Nc1cc2c(Nc3ccc(F)c(Cl)c3)ncnc2s1 | 5.92 | 8.15 | 8.40 | 5.29 | Active | Dose-dependent effect | Dose-dependent effect | Active | Dose-dependent effect | Active | Dose-dependent effect
15 | CS(=O)(=O)CCNC/C=C/C(=O)Nc1cc2c(Nc3ccc(F)c(Cl)c3)ncnc2s1 | 4.72 | 8.52 | 7.17 | 4.35 |  |  |  |  |  |  | 
16 | O=C(/C=C/CN1CCC2(CC1)OCCO2)Nc1cc2c(Nc3ccc(F)c(Cl)c3)ncnc2s1 | 6.26 | 8.70 | 7.70 | 5.18 |  |  |  |  |  |  | 
17 | O=C(/C=C/CNC1CCOCC1)Nc1cc2c(Nc3ccc(F)c(Cl)c3)ncnc2s1 | 5.66 | 7.70 | 7.49 | 5.15 |  |  |  |  |  |  | 
18 | O=C(/C=C/CN1CC(O)C1)Nc1cc2c(Nc3ccc(F)c(Cl)c3)ncnc2s1 | 5.78 | 7.42 | 6.52 | 5.17 |  |  |  |  |  |  | 
19 | CCN(CC)CCN(C)C/C=C/C(=O)Nc1cc2c(Nc3ccc(F)c(Cl)c3)ncnc2s1 | 5.37 | 6.86 | 6.45 | < 4.00 |  |  |  |  |  |  | 
20 | COC(=O)CC(=O)Nc1cc2c(Nc3ccc(F)c(Cl)c3)ncnc2s1 | 4.67 | 5.30 | < 5.00 | < 4.00 |  |  |  |  |  |  | 

Row | SMILES | pIC50 (A-431) | pIC50 [1] | pIC50 [2] | pIC50 (NCI-H1975) | inhibition [3] | inhibition [4] | inhibition [5] | inhibition [6] | inhibition [7] | inhibition [8] | inhibition [9]
21 | O=C(Nc1cc2c(Nc3ccc(F)c(Cl)c3)ncnc2s1)C1CCCC1 | 4.83 | < 5.00 | < 5.00 | 4.41 |  |  |  |  |  |  | 
22 | O=C(/C=C/CN1CCC(F)(F)C1)Nc1cc2c(Nc3ccc(F)c(Cl)c3)ncnc2s1 | 5.43 | 7.55 | 5.76 | 4.80 |  |  |  |  |  |  | 
23 | C=CCOC(=O)Nc1cc2c(Nc3ccc(F)c(Cl)c3)ncnc2s1 | 4.58 |  |  | 4.04 |  |  |  |  |  |  | 
24 | O=C(CN1CCC(CCO)CC1)Nc1cc2c(Nc3ccc(F)c(Cl)c3)ncnc2s1 | 5.02 | 6.27 | < 5.00 | 4.08 |  |  |  |  |  |  | 
25 | CN(C)CCN(C)CC(=O)Nc1cc2c(Nc3ccc(F)c(Cl)c3)ncnc2s1 | 5.80 | 5.37 | < 5.00 | 4.76 |  |  |  |  |  |  | 
26 | CN(C)C/C=C/C(=O)Nc1cc2c(Nc3ccc(F)c(Cl)c3)ncnc2s1 | 6.60 | 7.62 | 6.49 | 5.00 |  |  |  |  |  |  | 
27 | O=C(/C=C/CN1CCCCC1)Nc1cc2c(Nc3ccc(F)c(Cl)c3)ncnc2s1 | 6.89 | 8.05 | 8.70 | 5.19 | Active | Dose-dependent effect | Dose-dependent effect | Active | Dose-dependent effect | Active | Dose-dependent effect
28 | CN1CCN(C/C=C/C(=O)Nc2cc3c(Nc4ccc(F)c(Cl)c4)ncnc3s2)CC1 | 5.35 | 6.91 | 8.52 | 4.46 |  |  |  |  |  |  | 
29 | COC(=O)CCCC(=O)Nc1cc2c(Nc3ccc(F)c(Cl)c3)ncnc2s1 | 4.56 | < 5.00 | < 5.00 | < 4.00 |  |  |  |  |  |  | 
30 | CN(C)CCCNC/C=C/C(=O)Nc1cc2c(Nc3ccc(F)c(Cl)c3)ncnc2s1 | 4.60 | 5.92 | 9.15 | < 4.00 |  |  |  |  |  |  | 
31 | COCCNC/C=C/C(=O)Nc1cc2c(Nc3ccc(F)c(Cl)c3)ncnc2s1 | 5.31 | 5.98 | 8.30 | 4.38 |  |  |  |  |  |  | 
32 | O=C(/C=C/CN1CCOCC1)Nc1cc2c(Nc3ccc(F)c(Cl)c3)ncnc2s1 | 5.66 | 8.52 | 8.52 | 4.93 | Active | Dose-dependent effect | Dose-dependent effect | Active | Dose-dependent effect | Active | Dose-dependent effect
33 | COC(CN(C)C/C=C/C(=O)Nc1cc2c(Nc3ccc(F)c(Cl)c3)ncnc2s1)OC | 6.37 | 8.70 | 7.21 | 5.31 |  |  |  |  |  |  | 
34 | O=C(/C=C/CN1CC2(COC2)C1)Nc1cc2c(Nc3ccc(F)c(Cl)c3)ncnc2s1 | 6.07 | 8.15 | 7.37 | 5.26 |  |  |  |  |  |  | 
35 | O=C(/C=C/CN1CCC(F)CC1)Nc1cc2c(Nc3ccc(F)c(Cl)c3)ncnc2s1 | 5.62 |  |  | 4.97 |  |  |  |  |  |  | 
36 | CSC1CCN(C/C=C/C(=O)Nc2cc3c(Nc4ccc(F)c(Cl)c4)ncnc3s2)CC1 | 5.95 | 7.74 | 7.59 | 5.28 |  |  |  |  |  |  | 
37 | CCN(CC)C/C=C/C(=O)Nc1cc2c(Nc3ccc(F)c(Cl)c3)ncnc2s1 | 6.19 | 8.10 | 7.46 | 4.94 |  |  |  |  |  |  | 
38 | O=C(/C=C/CNCc1ncccn1)Nc1cc2c(Nc3ccc(F)c(Cl)c3)ncnc2s1 | 5.49 | 8.10 | 7.26 | 4.28 |  |  |  |  |  |  | 
39 | CCC(CC)C(=O)Nc1cc2c(Nc3ccc(F)c(Cl)c3)ncnc2s1 | 4.64 | < 5.00 | < 5.00 | < 4.00 |  |  |  |  |  |  | 
